Laboratory results as given in patent publication US5475009A, “1, 2-dialkoxyethanes as 5-lipoxygenase inhibitors” (Abbott Laboratories, priority 1994, dated 1995).

Target: T1, 5-Lipoxygenase (Homo sapiens, UniProt P09917)
T1 construct: endogenous in cells; host or cells: human heparinized whole blood (its leukocytes)
T1 sequence (P09917 1-674): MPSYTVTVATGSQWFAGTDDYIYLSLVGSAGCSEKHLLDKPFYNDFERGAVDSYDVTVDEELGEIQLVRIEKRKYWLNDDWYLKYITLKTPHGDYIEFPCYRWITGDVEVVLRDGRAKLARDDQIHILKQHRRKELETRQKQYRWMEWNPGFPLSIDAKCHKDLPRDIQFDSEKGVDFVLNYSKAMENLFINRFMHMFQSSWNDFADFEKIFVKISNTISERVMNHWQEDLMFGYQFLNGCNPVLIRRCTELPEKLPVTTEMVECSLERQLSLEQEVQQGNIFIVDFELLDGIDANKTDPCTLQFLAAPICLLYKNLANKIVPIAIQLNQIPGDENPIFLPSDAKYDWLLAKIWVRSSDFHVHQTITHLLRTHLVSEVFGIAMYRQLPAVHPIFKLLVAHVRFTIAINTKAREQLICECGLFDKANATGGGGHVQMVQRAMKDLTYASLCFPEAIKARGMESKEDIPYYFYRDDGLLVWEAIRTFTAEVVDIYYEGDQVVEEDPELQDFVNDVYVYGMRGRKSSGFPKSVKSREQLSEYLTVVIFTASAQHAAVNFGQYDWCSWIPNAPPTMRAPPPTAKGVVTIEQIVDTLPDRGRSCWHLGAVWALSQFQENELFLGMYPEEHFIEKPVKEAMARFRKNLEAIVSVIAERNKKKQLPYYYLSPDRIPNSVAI
Assay: Inhibition of calcium ionophore A23187-induced LTB4 biosynthesis in human whole blood (radioimmunoassay)
Format: cell-based
Conditions: human heparinized whole blood, 15 min preincubation, A23187 8.3 μM, 30 min, read-out: Inhibition of stimulated LTB4 formation in human whole blood (IC50 (10^-6 M)); for inhibition at 0.2 µM: @ 0.20 μM
Procedure: Inhibition of leukotriene biosynthesis was evaluated in an assay, involving calcium ionophore-induced LTB4 biosynthesis expressed human whole blood. Human heparinized whole blood was preincubated with test compounds or vehicle for 15 min at 37° C. followed by calcium ionophore A23187 challenge (final concentration of 8.3 μM) and the reaction terminated after 30 min by adding two volumes of methanol containing prostaglandin B2 as an internal recovery standard. The methanol extract was analyzed for LTB4 using a commercially available radioimmunoassay.
In Vitro Inhibitory Potencies of Compounds of this Invention
Against 5-Lipoxygenase from Stimulated LTB4
Formation in Human Whole Blood

| inhibition at 0.2 µM [%] | inhibition at 0.78 µM [%] | SMILES | also measured |
| --- | --- | --- | --- |
| 95 | – | COC[C@@H](OC)[C@@H](OC)c1cc(F)cc(OCc2ccc3ccccc3c2)c1 [Example 7, anti-(1S, 2R)-1-[(5-fluoro-3-(napth-2-ylmethyloxy)phenyl)]-1,2,3-trimethoxypropane] | – |
| – | 92 | COC[C@@H](OC)[C@H](OC)c1cc(F)cc(OCc2ccc3ccccc3c2)c1 [Example 8, syn-(1R, 2R)-1-[(5-fluoro-3-(napth-2-ylmethyloxy)phenyl)]-1,2,3-trimethoxypropane] | – |

Second part, the compound before the results:

| SMILES | inhibition at 0.2 µM [%] | inhibition at 0.78 µM [%] | also measured |
| --- | --- | --- | --- |
| CO/N=C(/c1cc(F)cc(OCc2ccc3c(ccc(=O)n3C)c2)c1)[C@H]1COC(C)(C)O1 [Example 6, Z-(4S)-O-methyl-2,2-dimethyl-4-[(5-fluoro-3-(1,2-dihydro-1-methyl-2-oxoquinoline-6-ylmethyloxy)phenyl)oximinomethyl]-1,3-dioxolane] | 83 | – | – |
| CO/N=C(\c1cc(F)cc(OCc2ccc3c(ccc(=O)n3C)c2)c1)[C@H]1COC(C)(C)O1 [Example 5, E-(4S)-O-methyl-2,2-dimethyl-4-[(5-fluoro-3-(1,2-dihydro-1-methyl-2-oxoquinoline-6-ylmethyloxy)phenyl)oximinomethyl]-1,3-dioxolane] | – | – | inhibition at 0.1 µM (@ 0.10 μM): 95% |
| CO/N=C(\c1cc(F)cc(OCc2ccc3ccccc3c2)c1)[C@H]1COC(C)(C)O1 [4(E oxime), E-(4S)-O-methyl-2,2-dimethyl-4-[(5-fluoro-3-(napth-2-ylmethyloxy)phenyl)oximinomethyl]-1,3-dioxolane] | 100 | – | – |
| CO/N=C(/c1cc(F)cc(OCc2ccc3ccccc3c2)c1)[C@H]1COC(C)(C)O1 [4(Z oxime), Z-(4S)-O-methyl-2,2-dimethyl-4-[(5-fluoro-3-(napth-2-ylmethyloxy)phenyl)oximinomethyl]-1,3-dioxolane] | – | 78 | – |
